Conditions: 100 kPa, Liquid; for electrical conductivity: Alternating current cell with electrodes

CCCCCC[n+]1ccc(C)cc1.O=S(=O)([N-]S(=O)(=O)C(F)(F)F)C(F)(F)F
Conditions | electrical conductivity [S/m]
283.15 K | 0.0839
288.15 K | 0.11
293.15 K | 0.145
298.15 K | 0.185
303.15 K | 0.231
308.15 K | 0.283
313.15 K | 0.346
318.15 K | 0.415
323.15 K | 0.487
328.15 K | 0.571
333.15 K | 0.652
338.15 K | 0.756
343.15 K | 0.861
348.15 K | 0.968
353.15 K | 1.07

Conditions | mass density, Vibrating tube method [kg/m3] | viscosity, Concentric cylinders viscometry [mPa·s]
283.15 K | 1365.3 | 181.62
288.15 K | 1360.8 | 133.92
293.15 K | 1356.3 | 101.07
298.15 K | 1351.8 | 77.99
303.15 K | 1347.4 | 61.3
308.15 K | 1342.9 | 49.03
313.15 K | 1338.5 | 39.75
318.15 K | 1334.1 | 32.73
323.15 K | 1329.6 | 27.38
328.15 K | 1325.2 | 23.11
333.15 K | 1320.8 | 19.71
338.15 K | 1316.5 | 16.97
343.15 K | 1312.1 | 14.73
348.15 K | 1307.8 | 12.87
353.15 K | 1303.4 | 11.32

CCC[n+]1cccc(C)c1.O=S(=O)([N-]S(=O)(=O)C(F)(F)F)C(F)(F)F
Conditions | electrical conductivity [S/m]
278.15 K | 0.152
283.15 K | 0.199
288.15 K | 0.253
293.15 K | 0.318
298.15 K | 0.393
303.15 K | 0.476
308.15 K | 0.571
313.15 K | 0.671
318.15 K | 0.786
323.15 K | 0.904
328.15 K | 1.04
333.15 K | 1.18
338.15 K | 1.33
343.15 K | 1.49
348.15 K | 1.65
353.15 K | 1.83

Conditions | mass density, Buoyancy - hydrostatic balance [kg/m3] | viscosity, Capillary tube (Ostwald / Ubbelohde) method [mPa·s]
288.15 K | 1459.6 | –
293.15 K | 1455.6 | –
298.15 K | 1451.4 | 54.12
303.15 K | 1447.1 | 43.46
308.15 K | 1442.6 | 35.27
313.15 K | 1438 | 29.18
318.15 K | 1433.2 | 24.32
323.15 K | 1428.7 | 20.87
328.15 K | 1424.5 | 17.94
333.15 K | 1420.3 | 15.15
338.15 K | 1416 | 13.4
343.15 K | – | 11.74
348.15 K | – | 10.37
353.15 K | – | 9.19

CCCCCC[n+]1cccc(C)c1.O=S(=O)([N-]S(=O)(=O)C(F)(F)F)C(F)(F)F
Conditions | electrical conductivity [S/m]
278.15 K | 0.0495
283.15 K | 0.067
288.15 K | 0.0885
293.15 K | 0.116
298.15 K | 0.148
303.15 K | 0.187
308.15 K | 0.231
313.15 K | 0.283
318.15 K | 0.342
323.15 K | 0.406
328.15 K | 0.477
333.15 K | 0.553
338.15 K | 0.638
343.15 K | 0.728
348.15 K | 0.822
353.15 K | 0.92

Conditions | mass density, Buoyancy - hydrostatic balance [kg/m3] | viscosity, Capillary tube (Ostwald / Ubbelohde) method [mPa·s]
283.15 K | 1373.6 | –
288.15 K | 1369.7 | –
293.15 K | 1365.3 | –
298.15 K | 1361.5 | 86.59
303.15 K | 1357 | 67.83
308.15 K | 1352.9 | 54.23
313.15 K | 1348.7 | 44.24
318.15 K | 1344.7 | 36.21
323.15 K | 1340.3 | 29.97
328.15 K | 1336 | 25.08
333.15 K | 1331.7 | 21.31
338.15 K | 1328 | 18.28
343.15 K | – | 15.88
348.15 K | – | 13.71
353.15 K | – | 11.99
